In the assay the test system is LNCaP cells expressing ARR2PB-FireflyLuc and CMV-RenillaLuc. Description: LNCaP ARR2PB-FireflyLuc reporter assay, antagonist mode.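 Further: IC50 bins in nM.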 The note with it: Homo sapiens, LNCaP, 48 h, +0.5 nM DHT, 48 h at 37° C., read-out: LNCap Antagonist Archive: IC50. Type of assay: cell-based. Here is the method:
LNCaP cells expressing ARR2PB-FireflyLuc and CMV-RenillaLuc were treated with indicated concentrations of test compounds, enzalutamide (negative control), or DHT (positive control)+/−0.5 nM DHT for 48 h at 37° C. Fluorescent signals were read with the ImageXpress Micro Confocal System. Remaining activity (antagonist mode) was calculated as % Remaining Activity=100×[(ReadSample−LCave)/(HCave−LCave)] where HC is cells treated with 0.5 nM DHT only and LC is cells treated with 10 uM enzalutamide+0.5 nM DHT. Activation (agonist mode) was calculated as % Activation=100×[(ReadSample−LCave)/(HCave−LCave)] where HO is cells treated with 1 uM DHT and LC is cells treated with DMSO. Dose response curves and IC50 values were calculated using non-linear regression analysis in XLfit.
The designation “A” indicates an IC50 value of >10 μM, “B” indicates an IC50 value between 1 μM and 10 μM; “C” indicates an IC50 value between 100 nM and 1 μM; and “D” indicates an IC50 value of less than 100 nM.
On to `O=C(c1cc2cccc(Cl)c2[nH]1)N(c1ccc(F)cc1)C1CCOC1` (stereo not shown) [Example 58, 7-chloro-N-(4-fluorophenyl)-N-(tetrahydrofuran-3-yl)-1H-indole-2-carboxamide], for which the IC50 was 0.1 to 1 µM.
As to `Cn1c(C(=O)NC23CC(C)(C2)C3)cc2ccnc(Cl)c21` [Example 142, 7-chloro-1-methyl-N-{3-methylbicyclo[1.1.1]pentan-1-yl}pyrrolo[2,3-c]pyridine-2-carboxamide], the IC50 lay within 1 to 10 µM.
Then `CC(C)N1CCCC(N(C)C(=O)c2cc3cccc(Cl)c3[nH]2)C1` (stereo not shown) [Example 44, 7-chloro-N-(1-isopropylpiperidin-3-yl)-N-methyl-1H-indole-2-carboxamide], with more than 10 µM.
To `CC(C)N(CC1CCCO1)C(=O)c1cc2ccc(F)cc2[nH]1` (stereo not shown) [Example 4, 6-fluoro-N-isopropyl-N-(oxolan-2-ylmethyl)-1H-indole-2-carboxamide] belongs more than 10 µM.
Then `Cn1c(C(=O)NC2CC3(CC3)C2)cc2ccnc(Cl)c21` [Example 149, 7-chloro-1-methyl-N-{spiro[2.3]hexan-5-yl}pyrrolo[2,3-c]pyridine-2-carboxamide], with 1 to 10 µM.
Regarding `CC(C)N(C(=O)c1cc2ccc(F)cc2[nH]1)c1ccccc1` [Example 11, 6-fluoro-N-isopropyl-N-phenyl-1H-indole-2-carboxamide], the IC50 fell in the range of 0.1 to 1 µM.
To `O=C(NC12CC(F)(C1)C2)c1cc2ccnc(Cl)c2n1CCN1CCOCC1` [Example 141, 7-chloro-N-{3-fluorobicyclo[1.1.1]pentan-1-yl}-1-[2-(morpholin-4-yl)ethyl]pyrrolo[2,3-c]pyridine-2-carboxamide] belongs more than 10 µM; to `Cn1c(C(=O)NC23CC(C2)C3)cc2ccc(C#N)cc21` [Example 155, N-(bicyclo[1.1.1]pentan-1-yl)-6-cyano-1-methyl-1H-indole-2-carboxamide], 1 to 10 µM.
On to `O=C(c1cc2ccc(F)cc2[nH]1)N(c1ccc(F)cc1)C1CCOC1` (stereo not shown) [Example 85, 6-fluoro-N-(4-fluorophenyl)-N-(tetrahydrofuran-3-yl)-1H-indole-2-carboxamide], for which the concentration for half-maximal inhibition (IC50) was less than 0.1 µM.
Then `CN(C(=O)c1nc2ccc(F)cc2[nH]1)c1ccccc1` [Example 23, 5-fluoro-N-methyl-N-phenyl-3H-1,3-benzodiazole-2-carboxamide], with more than 10 µM; and `CC(C)N(Cc1ccccn1)C(=O)c1cc2ccc(F)cc2[nH]1` [Example 7, 6-fluoro-N-isopropyl-N-(pyridin-2-ylmethyl)-1H-indole-2-carboxamide], with more than 10 µM.
To `O=C(NC12CC(O)(C1)C2)c1cc2ccnc(Cl)c2[nH]1` [Example 116, 7-chloro-N-{3-hydroxybicyclo[1.1.1]pentan-1-yl}-1H-pyrrolo[2,3-c]pyridine-2-carboxamide] belongs more than 10 µM; to `CN(C(=O)c1cc2ccnc(C#N)c2n1C)C12CC(F)(C1)C2` [Example 133, 7-cyano-N-{3-fluorobicyclo[1.1.1]pentan-1-yl}-N,1-dimethylpyrrolo[2,3-c]pyridine-2-carboxamide], 0.1 to 1 µM; to `NCCn1c(C(=O)NC23CC(F)(C2)C3)cc2ccnc(Cl)c21` [Example 137, 1-(2-aminoethyl)-7-chloro-N-{3-fluorobicyclo[1.1.1]pentan-1-yl}pyrrolo[2,3-c]pyridine-2-carboxamide], more than 10 µM.
Then `CN(C(=O)c1cc2cccc(Cl)c2[nH]1)C12CC(C#N)(C1)C2` [Example 86, 7-chloro-N-[3-cyanobicyclo[1.1.1]pentan-1-yl]-N-methyl-1H-indole-2-carboxamide], with 1 to 10 µM; and `Cn1c(C(=O)NC23CC(F)(C2)C3)cc2cccc(Cl)c21` [Example 114, 7-chloro-N-{3-fluorobicyclo[1.1.1]pentan-1-yl}-1-methylindole-2-carboxamide], with less than 0.1 µM.
Turning to `CN(C(=O)c1cc2cccc(Cl)c2[nH]1)c1ccccn1` [Example 28, 7-chloro-N-methyl-N-(pyridin-2-yl)-1H-indole-2-carboxamide], the IC50 was in the range of 1 to 10 µM.
Then `Cc1ncoc1CN(C)C(=O)c1cc2cccc(Cl)c2[nH]1` [Example 97, 7-chloro-N-methyl-N-[(4-methyl-1,3-oxazol-5-yl)methyl]-1H-indole-2-carboxamide], with more than 10 µM; and `COCCNC(=O)c1cc2ccc(F)cc2n1-c1ccc(C#N)cn1` [Example 52, 1-(5-cyanopyridin-2-yl)-6-fluoro-N-(2-methoxyethyl)-1H-indole-2-carboxamide], with more than 10 µM; and `COCCNC(=O)c1cc2ccc(F)cc2n1-c1ccc(Cl)cn1` [Example 53, 1-(5-chloropyridin-2-yl)-6-fluoro-N-(2-methoxyethyl)-1H-indole-2-carboxamide], with more than 10 µM.
Then `N#Cc1cccc2cc(C(=O)N(CC3CC3)c3ccccn3)[nH]c12` [Example 60, 7-((I1-azaneyl)ethynyl)-N-(cyclopropylmethyl)-N-(pyridin-2-yl)-1H-indole-2-carboxamide], with more than 10 µM; and `CN(C(=O)c1cc2cccc(Cl)c2[nH]1)C1CCCNC1` (stereo not shown) [Example 42, 7-chloro-N-methyl-N-(piperidin-3-yl)-1H-indole-2-carboxamide], with more than 10 µM; and `CN(C(=O)c1cc2ccc(F)cc2[nH]1)c1ccccc1` [Example 59, 6-fluoro-N-methyl-N-phenyl-1H-indole-2-carboxamide], with 0.1 to 1 µM.
To `O=C(NC12CC(C1)C2)c1[nH]c2c(Cl)cccc2c1Cl` [Example 106, N-[bicyclo[1.1.1]pentan-1-yl]-3,7-dichloro-1H-indole-2-carboxamide] belongs 1 to 10 µM; to `O=C(NC12CC(F)(C1)C2)c1cc2ccnc(Cl)c2n1CC1CC1` [Example 113, 7-chloro-1-(cyclopropylmethyl)-N-{3-fluorobicyclo[1.1.1]pentan-1-yl}pyrrolo[2,3-c]pyridine-2-carboxamide], 0.1 to 1 µM.
Take `CN(CC1CCCC1)C(=O)c1cc2cccc(Cl)c2[nH]1` [Example 70, 7-Chloro-N-(cyclopentylmethyl)-N-methyl-1H-indole-2-carboxamide]: the IC50 lay in the range of 1 to 10 µM.
Then `Cc1nc(-c2c(C(=O)N(Cc3ccco3)C(C)C)[nH]c3cc(F)ccc23)ccc1N` [Example 1, 3-(5-amino-6-methylpyridin-2-yl)-6-fluoro-N-(furan-2-ylmethyl)-N-isopropyl-1H-indole-2-carboxamide], with more than 10 µM; and `O=C(NC1CCCC1)c1cc2cccc(Cl)c2[nH]1` [Example 69, 7-chloro-N-cyclopentyl-1H-indole-2-carboxamide], with more than 10 µM; and `CN(C(=O)c1cc2cccc(Cl)c2[nH]1)C1CCOC(C)(C)C1` (stereo not shown) [Example 74, 7-chloro-N-(2,2-dimethyloxan-4-yl)-N-methyl-1H-indole-2-carboxamide], with 1 to 10 µM.
To `Cn1c(C(=O)NC2CC3(CCC3)C2)cc2ccnc(Cl)c21` [Example 150, 7-chloro-1-methyl-N-{spiro[3.3]heptan-2-yl}pyrrolo[2,3-c]pyridine-2-carboxamide] belongs 1 to 10 µM; to `N#Cc1ccc(N(C(=O)c2cc3cccc(Cl)c3[nH]2)C2CCOC2)cc1` (stereo not shown) [Example 83, 7-chloro-N-(4-cyanophenyl)-N-(oxolan-3-yl)-1H-indole-2-carboxamide], less than 0.1 µM.
Then `CN(C(=O)c1cc2cccc(Cl)c2o1)c1ccccn1` [Example 37, 7-chloro-N-methyl-N-(pyridin-2-yl)-1-benzofuran-2-carboxamide], with more than 10 µM.
Take `CN(C(=O)c1cc2cccc(Cl)c2[nH]1)C1CCNCC1` [Example 43, 7-chloro-N-methyl-N-(piperidin-4-yl)-1H-indole-2-carboxamide]: the IC50 is more than 10 µM.
Take `CN(C(=O)c1cc2ccc(F)cc2[nH]1)c1ccncc1` [Example 15, 6-fluoro-N-methyl-N-(pyridin-4-yl)-1H-indole-2-carboxamide]: the IC50 is more than 10 µM.
With `C[C@@H]1COC[C@H]1NC(=O)c1cc2cccc(Cl)c2[nH]1` [Example 64, 7-chloro-N-[(3S,4S)-4-methyloxolan-3-yl]-1H-indole-2-carboxamide], the IC50 lay in the range of 1 to 10 µM.
Then `CN(C(=O)c1cc2ccc(F)cc2[nH]1)c1cccc(C#N)c1` [Example 16, N-(3-cyanophenyl)-6-fluoro-N-methyl-1H-indole-2-carboxamide], with more than 10 µM; and `CCn1c(C(=O)N(C)C23CC(F)(C2)C3)cc2ccnc(Cl)c21` [Example 153, 7-chloro-1-ethyl-N-(3-fluorobicyclo[1.1.1]pentan-1-yl)-N-methyl-1H-pyrrolo[2,3-c]pyridine-2-carboxamide], with less than 0.1 µM.
With `CC(C)N(Cc1ccon1)C(=O)c1cc2ccc(F)cc2[nH]1` [Example 5, 6-fluoro-N-isopropyl-N-(1,2-oxazol-3-ylmethyl)-1H-indole-2-carboxamide], the IC50 fell in the range of 1 to 10 µM.
On to `CN(C(=O)c1cc2cccc(C#N)c2o1)c1ccc(F)cc1` [Example 34, 7-cyano-N-(4-fluorophenyl)-N-methyl-1-benzofuran-2-carboxamide], for which the IC50 is more than 10 µM.
Then `CC(C)N(C)C(=O)c1cc2ccnc(Cl)c2n1C` [Example 134, 7-chloro-N-isopropyl-N,1-dimethylpyrrolo[2,3-c]pyridine-2-carboxamide], with 0.1 to 1 µM.
